Data taken from patent US20050239760A1, “Angiostatic agents and methods and compositions for controlling ocular hypertension” (Alcon, Inc., priority 2004, published 2005).

Tested on: choroidal neovascularization (CNV)
Test: Laser-induced choroidal neovascularization (CNV) in mice, rupture of Bruch's membrane
Type: in vivo, C57BL/J mice
Settings: single 5 μl intravitreal injection immediately after laser, day 14 post-laser
Text: Choroidal neovascularization (CNV) was induced in C57BL/J mice by rupturing Bruch's membrane via focal laser photocoagulation (FIG. 3). (Tobe T, et al., AM. J. PATHOL., 153:1641-1646 (1998)). Three to four retinal burns were placed in randomly assigned eye using the Alcon 532 nm EyeLite laser (75 μm spot size, 0.1 seconds duration, 120 mW) with a slit lamp delivery system. The laser bums were used to generate a rupture in Bruch's membrane, which was indicated ophthalmoscopically by the formation of a bubble under the retina. Only mice with laser burns that produced three bubbles per eye were included in the study. Burns were typically placed at the 3, 6, 9 or 12 o'clock positions in the posterior pole of the retina, avoiding the branch retinal arteries and veins.
Each mouse was randomly assigned into one of the following treatment groups after laser: noninjected controls, sham-injected controls, vehicle-injected mice, or one of three anecortave acetate-injected groups. Control mice received laser photocoagulation in both eyes, where one eye received a sham injection, i.e. a pars plana needle puncture. For intravitreal-injected animals, one laser-treated eye received a 5 μl intravitreal injection of 0%, 0.1%, 1%, or 10% anecortave acetate. The intravitreal injection was performed immediately after laser photocoagulation.
Fourteen days post-laser, all mice were euthanized and systemically perfused with fluorescein-labeled dextran. Eyes were then harvested and prepared as choroidal flat mounts, and the 2-dimensional CNV area was quantified with computerized digital analysis. (Mori K., et al., AM. J. PATHOL. 159:313-320 (2001)). The median CNV area/burn per mouse per treatment was used for statistical analysis; P≦0.05 was considered significant.

In the case of CC(=O)OCC(=O)[C@@]1(O)CC[C@H]2[C@@H]3CCC4=CC(=O)CC[C@]4(C)C3=CC[C@@]21C [anecortave acetate, 4,9(11)-pregnadien-17α,21-diol-3,20-dione-21-acetate], the “CNV versus vehicle-injected controls” value (0.1% anecortave acetate) is reported as “No difference”, the “CNV versus vehicle-injected controls” value (1% anecortave acetate) is reported as “No difference” and the “inhibition of CNV (median CNV area/burn) as compared to vehicle-injected eyes” value (10% anecortave acetate, Mann-Whitney P<0.001) is reported as 57.8%.
